Data published in paper PMC12444563 (ACS Omega, 2025).
Read-outs that look alike come from different tables or passages of the source. Starred links: 1 amine or outer side, 2 acyl side, 3 side chain; linkers in the order of their positions; H or OH if unused. Non-standard residues stand in square brackets, D forms with d. Residues, ends and D or L forms follow the SMILES beside them. *: point of attachment. Paclitaxel(2'-OCO-DMEDA) = CC(=O)O[C@H]1C(=O)[C@@]2(C)[C@H]([C@H](OC(=O)c3ccccc3)[C@]3(O)C[C@H](OC(=O)[C@H](OC(=O)N(C)CCN(C)*)[C@@H](NC(=O)c4ccccc4)c4ccccc4)C(C)=C1C3(C)C)[C@]1(OC(C)=O)CO[C@@H]1C[C@@H]2O; Fmoc = O=C(OCC1c2ccccc2-c2ccccc21)*; PABC = O=C(OCc1ccc(N[*:1])cc1)[*:2]

Key:
[1] = Liver S9 fraction stability assay, rat; assay type: in vitro ADME; details: male, rat, liver S9 fraction, 37 °C, read-out: S9 stability (matrix: rat) % remaining; for remaining at 0.5 h, 1 μM: 30 min; for remaining at 1.5 h, 1 μM: 90 min (1.5 h)
Method: The plasma stability assays were performed by Selvita SA (Krakow, Poland) following the protocol described in the Supporting Information. For the use of human plasma, consent was obtained from the subject or from the next of kin.
9. Plasma stability assays […]
Protocol for S9 fraction: a stock solution of compounds 1-4 in DMSO was incubated in human (male, pooled, commercially obtained from Xeno-tech lot: 2310104) and rat (male, pooled, commercially obtained from Xeno-tech (lot: 2210317)) S9 fraction at a final concentration of 1 μM (final concentration of DMSO = 0.5 %). The samples were incubated at 37 °C with a shaking of 450 rpm.
Aliquots of the samples were analyzed at time 0, 30 and 90 minutes by LC-MS/MS analysis.
The areas of the peak of the compounds 1-4 in the LC chromatogram were used to evaluate stability profile. The percentage of residual compounds 1-4 was calculated as the ratio between the area of the peak of the analyte and the area of the internal standard.
% residual compound = Area analyte ∙ 100
Table S7. LC-MS data of the stability assays in plasma extracts of compound 1.
Stability assays compound 1
Time Plasma stability Plasma stability S9 stability S9 stability
(min.) (matrix: rat) (matrix: human) Time (min.) (matrix: rat) (matrix: human) % remaining % remaining % remaining % remaining
Table S8. LC-MS data of the stability assays in plasma extracts of compound 2.
Stability assays compound 2

[2] = target: T1, bovine spleen Cathepsin B (Bos taurus, UniProt P07688); test: Cathepsin B cleavage assay (UHPLC-HRMS Orbitrap analysis); assay type: biochemical; details: for % residual compound, Average %: 37 °C, pH 5.4, 5 μM, triplicate
T1 construct: bovine spleen Cathepsin B (SigmaAldrich C6286, ≥10 units/mg protein); purchased SigmaAldrich C6286; host or cells: bovine spleen (tissue-derived)
Method: The Cathepsin B cleavage assay was performed by incubating compounds 1–4 at 37 °C under gently shaking conditions in the presence of the active form of Cathepsin B. More specifically, 122.4 μL of an enzyme-activating solution (composed of 7.48 mg of L-cysteine dissolved in 2 mL of a buffer solution containing 20 mM NaOAc, 1 mM EDTA, pH 5.4 to give a final cysteine concentration of 30.88 mM) was mixed with 12.6 μL of enzyme stock solution, previously prepared by solubilization of bovine spleen Cathepsin B (SigmaAldrich C6286, ≥10 units/mg protein) in 1 mL of buffer solution (without cysteine) to give a concentration of enzyme stock solution of 12 units/mL. After the dilution, the final concentration of Cathepsin B was 1.12 u/mL. Then, the diluted enzyme solution was incubated at 37 °C for 15 min to activate Cathepsin B. After 15 min, 6 μL of 117 μM compound solution, previously prepared by diluting 5.85 μL of 1 mM stock solution of the compound in 44.15 μL of dry DMSO (giving a 117 μM solution), was added to the test tube and the cleavage assay solution was incubated at 37 °C under gentle shaking conditions. […] The solutions were then centrifuged for 10 min at 6000 rpm. Blank solutions were prepared for each compound by dilution of 6 μL of a 117 μM compound solution into 135 μL of an enzyme-activating solution. UHPLC-MS analyses were carried out using a Vanquish UHPLC System (Thermo Fisher Scientific) and Orbitrap Exploris 120 (Thermo Fisher Scientific). Thermo Scientific Xcalibur software was used to control the instruments and acquire the data. Freestyle 1.8 software was used for processing the data. UHPLC chromatographic separations were performed on a reversed-phase column Accucore C18 50 × 2.1 mm, 2.6 μm (Thermo Fisher Scientific). A gradient system was used with the mobile phase consisting of solvent A: H2O + 0.05% formic acid and solvent B: acetonitrile. The areas of the peak of compounds 1–4 in the extracted ion chromatogram were used to evaluate the kinetics of the cleavage process. The percentage of residual compound was calculated as the ratio between the areas of the peak of the full compound at the desired time point and in the blank analysis. %Residualcompound=areacompoundatthedesiredtimepoint/areacompoundintheblanksolution×100

[3] = pH stability assay (buffers pH 5.4 and 7.4, UHPLC-HRMS); assay type: physicochemical; details: 37 °C, average of two replicates
Method: The pH stability assay was performed by incubating compounds 1–4 at 37 °C in buffers at pH 5.4 and 7.4 under gentle shaking conditions. More specifically, a solution of 20 mM AcONa and 1 mM EDTA in mQ water was used as a pH 5.4 buffer. A solution of PBS tablets in mQ water was used as a pH 7.4 buffer. A 1 mM stock solution of compounds 1–4 in dry DMSO was prepared and a […] solution was then obtained by dilution of 5.85 μL of the stock solution in 44.15 μL of dry DMSO. Then, 6 μL of the […] compound solution was diluted into 135 μL of the desired buffer, and the solution was incubated at 37 °C under gently shaking conditions. Samples aliquots (10 μL) were taken out at 15, 30 min and 1, 2, and 4 h and quenched with 10 μL of acetonitrile. The solutions were then injected in UHPLC-HRMS to monitor the stability of compounds 1–4 under different pH conditions. UHPLC-MS analyses were carried out as previously described for the Cathepsin B cleavage assay. The percentage of the residual compound was calculated as described above.
The stability of compounds 1–4 and of the free drug PTX was evaluated in vitro by UHPLC-Orbitrap analysis incubating the samples at 37 °C in buffer solutions at pH 5.4, to simulate the pH inside the cancer cells, and at physiological pH 7.4. The same buffer of the Cathepsin B cleavage assay was used for the test at pH 5.4. The percentage of residual compounds 1–4 was measured over time by calculating the ratio between the areas of the peak of the full compound at the desired time point and at time zero, and the results were compared with the percentage of residual compounds 1–4 calculated during the Cathepsin B cleavage assay (Tables S6).

[4] = 2 min incubation with Cathepsin B
[5] = 15 min incubation with Cathepsin B
[6] = 30 min incubation with Cathepsin B
[7] = 60 min incubation with Cathepsin B
[8] = 120 min incubation with Cathepsin B
[9] = PBS pH 7.4, pH 7.4 PBS, 30 min, read-out: Stability pH 7.4, % residual compound

SMILES | remaining at 0.5 h, 1 μM [1] | remaining at 1.5 h, 1 μM [1] | % residual compound, Average % [2, 4] | % residual compound, Average % [2, 5] | % residual compound, Average % [2, 6] | % residual compound, Average % [2, 7] | % residual compound, Average % [2, 8] | % residual compound, % R1 ([2]; replicate R1, 2 min) | % residual compound, % R1 ([2]; replicate R1, 15 min) | % residual compound, % R1 ([2]; replicate R1, 30 min) | % residual compound, % R1 ([2]; replicate R1, 60 min) | % residual compound, % R1 ([2]; replicate R1, 120 min) | % residual compound, % R1 ([2]; replicate R1, 240 min) | % residual compound, % R3 ([2]; replicate R3, 2 min) | % residual compound, % R3 ([2]; replicate R3, 15 min) | % residual compound, % R3 ([2]; replicate R3, 30 min) | % residual compound, % R3 ([2]; replicate R3, 60 min) | % residual compound, % R3 ([2]; replicate R3, 120 min) | % residual compound, % R3 ([2]; replicate R3, 240 min) | remaining at 0.5 h, 4.98 µM [3, 9] | other results
CC(=O)O[C@H]1C(=O)[C@@]2(C)[C@H]([C@H](OC(=O)c3ccccc3)[C@]3(O)C[C@H](OC(=O)[C@H](OC(=O)N(C)CCN(C)C(=O)OCc4ccc(NC(=O)CNC(=O)[C@H](CC(C)C)NC(=O)[C@@H]5CCCN5C(=O)CNC(=O)OCC5c6ccccc6-c6ccccc65)cc4)[C@@H](NC(=O)c4ccccc4)c4ccccc4)C(C)=C1C3(C)C)[C@]1(OC(C)=O)CO[C@@H]1C[C@@H]2O [Compound 1, Fmoc-GPLG-PABC-diamine-PTX] (Fmoc-GPLG[PABC]-{Paclitaxel(2'-OCO-DMEDA)}) | 88.8% | 94.5% | 94.40% | 80.50% | 73.35% | 68.45% | 65.40% | 108.85% | 85.04% | 73.97% | 68.69% | 69.51% | 56.09% | 97.22% | 78.25% | 74.08% | 69.05% | 67.07% | 70.97% | 115% | peak of free Paclitaxel in the incubated solution ([2]; 4 h incubation with Cathepsin B, HRMS): not possible to observe; peak of free PTX in the incubated solution ([2]; 24 h incubation with Cathepsin B, HRMS): confirmed the presence; cleavage kinetics compared within compounds 1-4 ([2]; Cathepsin B, compound 1: initial time points 2 min to 1 h, compound 2: over 4 h): fastest; Stability pH 5.4, % residual compound ([3]; pH 5.4 buffer, 30 min): 93.60%; Stability pH 5.4, % residual compound ([3]; pH 5.4 buffer, 120 min): 93.87%; Stability pH 5.4, % residual compound ([3]; pH 5.4 buffer, 240 min (4 h)): 93.78%; Stability pH 7.4, % residual compound ([3]; pH 7.4 PBS, 120 min): 97.00%; Stability pH 7.4, % residual compound ([3]; pH 7.4 PBS, 240 min): 113.04%
CC(=O)O[C@H]1C(=O)[C@@]2(C)[C@H]([C@H](OC(=O)c3ccccc3)[C@]3(O)C[C@H](OC(=O)[C@H](OC(=O)N(C)CCN(C)C(=O)OCc4ccc(NC(=O)CNC(=O)[C@H](CC(C)C)NC(=O)[C@H](Cc5ccccc5)NC(=O)CNC(=O)OCC5c6ccccc6-c6ccccc65)cc4)[C@@H](NC(=O)c4ccccc4)c4ccccc4)C(C)=C1C3(C)C)[C@]1(OC(C)=O)CO[C@@H]1C[C@@H]2O [Compound 2, Fmoc-GFLG-PABC-diamine-PTX] (Fmoc-GFLG[PABC]-{Paclitaxel(2'-OCO-DMEDA)}) | 72.8% | 61.8% | 99.63% | 98.45% | 95.35% | 95.89% | 94.14% | 99.33% | 98.52% | 92.26% | 92.45% | 99.27% | 96.36% | 104.39% | 102.02% | 95.37% | 97.64% | 90.86% | 89.52% | 90.6% | remaining at 2 h, 4.98 µM ([3]; PBS pH 7.4, pH 7.4 PBS, 120 min, read-out: Stability pH 7.4, % residual compound): 90.5%; remaining at 2 h, 4.98 µM ([3]; acetate/EDTA buffer pH 5.4, pH 5.4 buffer, 120 min, read-out: Stability pH 5.4, % residual compound): 85.4%; remaining at 4 h, 4.98 µM ([3]; acetate/EDTA buffer pH 5.4, pH 5.4 buffer, 240 min (4 h), read-out: Stability pH 5.4, % residual compound): 86.8%; Stability pH 5.4, % residual compound ([3]; pH 5.4 buffer, 30 min): 92.49%; Stability pH 7.4, % residual compound ([3]; pH 7.4 PBS, 240 min): 91.99%
